The values that follow come from patent US12245997B2, “Endoxifen for the treatment of bipolar I disorder” (priority 2020, dated 2025).

In data set [1] the test system is PKC. The data set can be described thus: Inhibition of PKC activity. The format is biochemical. Conditions: relative to tamoxifen.
The nature of data set [2]: Therapeutic index comparison. Conditions: as compared to divalproex sodium.
Data set [3] deals with PKC. Conditions: cited from earlier work.
The conditions of data set [4]: in human; cited from earlier work.

Consider `CC/C(=C(\c1ccc(O)cc1)c1ccc(OCCNC)cc1)c1ccccc1.O=C(O)CC(O)(CC(=O)O)C(=O)O` [Endoxifen, (Z)-1-(4-Hydroxyphenyl)-1-{4-[2-(monomethylamino)ethoxy]phenyl}-2-phenyl-1-butene citrate], for which the “potency in inhibiting the PKC activity compared to tamoxifen” value in the data set with PKC [1] was “four-fold higher potency”. The therapeutic index result in data set [2] is given as “broad therapeutic index”.

For `CC/C(=C(\c1ccccc1)c1ccc(OCCN(C)C)cc1)c1ccccc1` [Tamoxifen], the PKC inhibition entry in the data set with PKC [3] is “known to inhibit PKC”. The antimanic properties result in data set [4] was “demonstrate antimanic properties in human”.
